According to patent US20040054182A1, “1h-imidazopyridine derivatives” (priority 2000, published 2004):
Where a name gives a salt, the structure may show the parent alone.

Compound Cc1ccc2c(c1)nc(C(F)(F)F)c1nc(-c3ccccc3O)n(CCC3CCNCC3)c12 (as salt: trifluoroacetate) has a melting point of 161 to 162 °C. c1ccc(-c2nc3c(-c4ccco4)nc4ccccc4c3n2CCC2CCNCC2)cc1 showed a melting point of 224.5 to 225.5 °C. O=C(CCl)NCCn1c(-c2ccc[nH]2)nc2c(C(F)(F)F)nc3ccccc3c21 [Example 125, 2-chloro-N-[2-[2-(2-pyrrolyl)-4-trifluoromethyl-1H-imidazo-[4,5-c]quinolin-1-yl]ethyl]acetamide] gave a melting point of 234 to 235 °C. With FC(F)(F)c1nc2ccccc2c2c1nc(-c1ccco1)n2CCC1CCNCC1 (as salt: trifluoroacetate) (hydrate or solvate) the melting point was 133.5 to 136.5 °C (dec.). In the case of O=C(CCl)NCCn1c(-c2ccccc2)nc2c(C(F)(F)F)nc3ccccc3c21 [Example 124, 2-chloro-N-[2-(2-phenyl-4-trifluoromethyl-1H-imidazo[4,5-c]quinolin-1-yl)ethyl]acetamide], the melting point is reported as 230.5 to 231.5 °C. For CNCC(=O)NCCn1c(-c2ccccc2)nc2c(C(F)(F)F)nc3ccccc3c21 [Example 127, 2-Methylamino-N-[2-(2-phenyl-4-trifluoromethyl-1H-imidazo[4,5-c]quinolin-1-yl)-ethyl]acetamide], the melting point was 208 to 209 °C. For NCCn1c(-c2ccc[nH]2)nc2c(C(F)(F)F)nc3ccccc3c21 [Example 109, 1-(2-Aminoethyl)-2-(2-pyrrolyl)-4-trifluoromethyl-1H-imidazo[4,5-c]quinoline], the melting point was 195.5 to 196.5 °C. In the case of FC(F)(F)c1nc2ccccc2c2c1nc(-c1ccccc1)n2CCC1CC2CCC(C1)N2 (stereo not drawn) (as salt: trifluoroacetate), the melting point is reported as 249 to 251 °C (dec.). With Cc1cccc2c1nc(C(F)(F)F)c1nc(-c3nccs3)n(CCC3CCNCC3)c12 (as salt: trifluoroacetate) [Example 95, 6-Methyl-1-[2-(4-piperidyl)ethyl]-2-(2-thiazolyl)-4-trifluoromethyl-1H-imidazo-[4,5-c]quinoline] the melting point was 243 to 245 °C (dec.). For c1ccc(-c2nc3ccccc3c3c2nc(-c2ccccc2)n3CCC2CCNCC2)cc1 [Example 112, 2,4-Diphenyl-1-[2-(4-piperidyl)ethyl]-1H-imidazo[4,5-c]quinoline], the melting point was 209 to 211 °C. FC(F)(F)c1nc2ccccc2c2c1nc(-c1ccccc1)n2CCN1CCNCC1 [Example 99, 2-Phenyl-1-[2-(1-piperazinyl)ethyl]-4-trifluoromethyl-1H-imidazo[4,5-c]-quinoline] showed a melting point of 187 to 188 °C. In the case of Cc1ccc2c(c1)nc(C(F)(F)F)c1nc(-c3cccs3)n(CCC3CCNCC3)c12 (as salt: trifluoroacetate) (hydrate or solvate) [Example 91, 7-Methyl-1-[2-(4-piperidyl)ethyl]-2-(2-thienyl)-4-trifluoromethyl-1H-imidazo-[4,5-c]quinoline], the melting point is reported as 236 to 238 °C (dec.). With Fc1ccc2c(c1)nc(C(F)(F)F)c1nc(-c3cccs3)n(CCC3CCNCC3)c12 (as salt: trifluoroacetate) (hydrate or solvate) [Example 85, 7-Fluoro-1-[2-(4-piperidyl)ethyl]-2-(2-thienyl)-4-trifluoromethyl-1H-imidazo-[4,5-c]quinoline] the melting point was 234 to 235 °C (dec.). In the case of CN(C)CC(=O)NCCn1c(-c2ccc[nH]2)nc2c(C(F)(F)F)nc3ccccc3c21.O=C(O)/C=C/C(=O)O [Example 129, 2-Dimethylamino-N-[2-[2-(2-pyrrolyl)-4-trifluoromethyl-1H-imidazo[4,5-c]quinolin-1-yl]ethyl]acetamide fumarate], the melting point is reported as 219 to 222 °C (dec.). CN(C)CC(=O)NCCn1c(-c2ccccc2)nc2c(C(F)(F)F)nc3ccccc3c21.O=C(O)/C=C/C(=O)O [Example 128, 2-Dimethylamino-N-[2-(2-phenyl-4-trifluoromethyl-1H-imidazo[4,5-c]quinolin-1-yl)-ethyl]acetamide fumarate] showed a melting point of 207.5 to 208 °C.
